The term Km denotes the substrate concentration at which the rate is half of its maximum. As usually defined, the Vmax is the top rate of the reaction or transport when substrate is in excess.

The values below come from paper PMC7470163, “Effects of ticagrelor on the pharmacokinetics of rivaroxaban in rats” (Pharmaceutical Biology, 2020).

Each structure is given as a SMILES string.

Data set [1] in a line: Enzyme kinetics of rivaroxaban metabolism in rat liver microsomes. The following applies: Sprague-Dawley, rat, rat liver microsomes, pH 7.4, RLMs 0.5 mg/mL, 37 °C, 1 mM NADPH, R squared 0.979. The class given is in vitro ADME, Sprague-Dawley rat. How it is done:
(§1) The pooled rat liver microsomes (RLMs) were obtained from 8 rats, which were weighed and homogenized with cold […] phosphate-buffered saline (PBS) containing 0.25 mM sucrose. After centrifuging at 11000 rpm for 15 min, the supernatants were separated and transferred into new tubes for another 15 min centrifugation at 11000 rpm. Then ultracentrifugation was performed at 10000 rpm at 4 °C for 1 h, and the microsomal pellets were resuspended with cold 0.01 mM PBS and stored at −80 °C. The protein concentration of RLMs was determined using the Bradford Protein Assay Kit (Thermo Scientific, Waltham, MA, USA). […] The incubation time was 30 min. Incubations were initiated following a 5 min pre-incubation in a shaking water bath at 37 °C. 1 mM NADPH was added to initiate the reaction in a final volume of 200 μL. The reaction was stopped immediately by cooling to −80 °C. After that, 20 μL IS working solution and 200 μL acetonitrile were added. Centrifugation was performed at 13000 rpm for 5 min after vortexing for 1 min, and the supernatant was collected. Each incubation sample study was performed in separate EP tubes, performed in triplicate and analysed by UPLC-MS/MS. We selected 2 μL of RLMs with a concentration of 0.5 mg/mL in PBS for 30 minutes as the condition for enzyme kinetic studies. […]
(In general: Liver microsomes are vesicles of endoplasmic reticulum, rich in cytochrome P450 enzymes.)

Data set [2] relates to rat liver microsomes (RLMs). Described as above. The following applies: RLMs 0.5 mg/mL, 30 min, 37 °C, 1 mM NADPH, R squared 0.979. The class given is in vitro ADME, Sprague-Dawley rat. How it is done: as §1
A further data set has as its system CYP3A4. On the set-up: method as in Kvasnicka et al. [2017]. The following applies: ref Kvasnicka et al. [2017]; cited from earlier work.
A further data set relates to CYP2J2. Further details: method as in Kvasnicka et al. [2017]. As to conditions: ref Kvasnicka et al. [2017]; cited from earlier work.
Details of data set [3]: method as in Mueck et al. [2013]. The following applies: co-administration of ketoconazole; ref Mueck et al. [2013]; cited from earlier work.
Details of data set [4]: method as in Eriksson et al. [2009]; Altena et al. [2014]. As to conditions: with CYP3A4 inducer rifampicin; ref Eriksson et al. [2009]; Altena et al. [2014]; cited from earlier work.
Details of data set [5]: method as in Mega et al. [2012]. The following applies: low-dose rivaroxaban (2.5 mg or 5 mg twice daily) co-administered with DAPT; ref Mega et al. [2012]; cited from earlier work.

Regarding `O=C(NC[C@H]1CN(c2ccc(N3CCOCC3=O)cc2)C(=O)O1)c1ccc(Cl)s1` [Rivaroxaban], the Km at 30 min in data set [1] is 19.1 µM. In data set [2], the Vmax is given as 3.37 pmol/min/mg. The “share of total rivaroxaban elimination involving CYP3A4” value in the data set on CYP3A4 is on record as “about 18%”. Moreover, the “share of total rivaroxaban elimination involving CYP2J2” value with CYP2J2 was “about 14%”. In addition, in data set [3], the “increase in Cmax value of rivaroxaban” value is 1.7 fold and the “increase in the mean AUC value of rivaroxaban” value was 2.6 fold. The “reduction in the systemic exposure of rivaroxaban” value in data set [4] is given as 50%. In data set [5], the “risk of intracranial hemorrhage” value is given as 0.6% and the “risk of major bleeding” value is listed as 2.1%.
